Experimental data from patent US5013719A, “Method of effecting immunosuppression” (Merrell Dow Pharmaceuticals Inc., priority 1988, dated 1991).

Test system: cytolytic T lymphocyte induction (51Cr labeled P815 target cells)
Assay: Cytolytic T-lymphocyte induction in vivo (splenic cytolytic activity, 4-hour 51Cr release assay)
Parameters: species or system C57BL/6 mice
Settings: DFMO 2% in drinking water from day 1; splenic CTL activity day 10; vs vehicle treated control
Description: Alloreactive cytolytic T-lymphocytes (CTL) are generated in vivo by injecting C57BL/6 mice intraperitoneally with allogenic P815 (H-2^d) cells (10^7) on day 0.
Splenic cytolytic activity, which represents a direct measurement of immune response, is assessed by a 4-hour ^51 Cr release assay as described by Bowlin et al., Cell. […] Effector cells are characterized as T-cells based on surface phenotype (Thy 1.2^+, Lyt 2.2^+, L3T4^-) and allo-specificity (H-^2 d) as described by Bowlin et al., Cell Immunnol.
^a C57BL/6 mice were injected with allogeneic P815 cells on day 0.
DFMO was administered continuously, starting on day 1, in drinking water.
^b Splenic cytolytic T lymphocyte activity was assessed on day 10
utilizing ^51 Cr labeled P815 target cells. Data is expressed as %
inhibition compared with vehicle treated control.

NCCC[C@](N)(C(=O)O)C(F)F [DFMO, α-difluoromethylornithine]
Cytolytic T Lymphocyte Induction % Inhibition (mean ± S.E., n = 3): 10 ± 0.5%
